By MIC is commonly meant the lowest concentration found to suppress growth. The low end stands for inhibition by little substance, the high end for a need for much substance. What is called IC50 is the concentration at which inhibition is half-maximal. A higher IC50 goes with weaker potency.

Assay [1] concerns Mycobacterium tuberculosis. In words: Antitubercular activity against Mycobacterium tuberculosis H37Rv by alamar blue assay. The assay is classed as functional. In general terms: Resazurin is reduced to fluorescent resorufin, in cell work by metabolically active cells.
Assay [2] has as its system Plasmodium falciparum. The assay can be described thus: Antimalarial activity against Plasmodium falciparum W2. The assay is classed as functional, organism-based.
For assay [3], the system named is Plasmodium falciparum. The assay can be described thus: Antimalarial activity against Plasmodium falciparum D6. The assay is classed as functional, organism-based.

Each structure is given as a SMILES string. Converted amounts (≈) assume the structure as drawn. The source made the active and inactive calls. No cut-off for these calls is given here.

Take `CO[C@H]1/C=C/O[C@@]2(C)Oc3c(C)c(O)c4c(O)c(c(/C=N/N5CCN(C)CC5)c(O)c4c3C2=O)NC(=O)/C(C)=C\C=C\[C@H](C)[C@H](O)[C@@H](C)[C@@H](O)[C@@H](C)[C@H](OC(C)=O)[C@@H]1C` [RIFAMPIN]: the lowest concentration to inhibit growth in assay [1] (MIC) was 0.61 µM (≈ 0.502 µg/mL).
Turning to `O[C@]12CCCCCC[C@@H]3CCN4CCC[C@](O)(CCCCCC[C@@H]5CCN(CCC1)[C@H]2O5)[C@@H]4O3`, the IC50 stood at 0.28 µg/mL (≈ 0.585 µM) in assay [2] and 0.67 µg/mL (≈ 1.4 µM) in assay [3]. The compound also gave an MIC in assay [1] of 3.94 µM (≈ 1.89 µg/mL).
Regarding `C[C@@H]1CC[C@H]2[C@@H](C)C(=O)O[C@@H]3O[C@@]4(C)CC[C@@H]1[C@]32OO4` [ARTEMISININ], the results for the IC50 in assay [2] and in assay [3] were 0.007 µg/mL (≈ 0.0248 µM) and 0.006 µg/mL (≈ 0.0213 µM), respectively.
With `[O-][N+]12CCC[C@]3(O)CCCCCC[C@@H]4CCN5CCC[C@@H](CCCCCC[C@H](CC1)O[C@@H]32)[C@@H]5O4` (stereo not given in full), the outcome in assay [2] and in assay [3] was inactive.
Take `[O-][N+]12CCC[C@]3(O)CCCCCC[C@@H]4CCN5CCC[C@](O)(CCCCCC[C@H](CC1)O[C@@H]32)[C@@H]5O4` (stereo not given in full): the result in assay [2] and in assay [3] was inactive.

The record behind these values is ChEMBL document CHEMBL1150152, “Araguspongines K and L, new bioactive bis-1-oxaquinolizidine N-oxide alkaloids from Red Sea specimens of Xestospongia exigua” (J Nat Prod, 2002).
